The values that follow come from ChEMBL document CHEMBL1125682, “Novel synthesis and biochemical properties of an [125I]-labeled photoaffinity probe for thromboxane A2/prostaglandin H2 receptors” (J Med Chem, 1991).

Broadly, the IC50 is the point on the concentration scale where inhibition reaches its midpoint. Lower therefore signals greater potency in that assay.

For assay [1], the target named is T1, Thromboxane A2 receptor (Homo sapiens, UniProt P21731).
T1 sequence (P21731 whole entry): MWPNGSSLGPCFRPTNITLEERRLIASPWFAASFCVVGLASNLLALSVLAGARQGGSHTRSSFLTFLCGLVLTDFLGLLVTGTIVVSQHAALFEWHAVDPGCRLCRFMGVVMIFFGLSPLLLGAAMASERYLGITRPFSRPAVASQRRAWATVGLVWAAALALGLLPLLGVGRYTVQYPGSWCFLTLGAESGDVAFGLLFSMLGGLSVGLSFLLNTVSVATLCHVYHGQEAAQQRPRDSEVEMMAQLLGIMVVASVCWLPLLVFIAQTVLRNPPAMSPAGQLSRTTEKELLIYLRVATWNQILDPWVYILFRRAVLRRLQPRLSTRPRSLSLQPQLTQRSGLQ
The assay is described as follows: Binding affinity towards Thromboxane A2/ Prostaglandin H2 receptor in human platelet membranes using [125I]- as the radioligand. The assay is classed as cell membranes.

The target in assay [2] is T1, Thromboxane A2 receptor. Description: Binding affinity towards Thromboxane A2 receptor/Prostaglandin receptor in human platelet membranes using [125I]- as the radioligand. Format: cell membranes.

`O=C(O)C[C@@H]1CCCc2c1n(Cc1ccc(Cl)cc1)c1ccc(F)cc21` (stereo in doubt; L-657925): the IC50 at Thromboxane A2 receptor [1] amounted to 11.2 nM.
At Thromboxane A2 receptor [1], `O=C(O)C[C@@H]1CCCc2c1n(Cc1ccc(Cl)cc1)c1ccc(F)cc21` (stereo in doubt; L-657926) displayed an IC50 of 1500 nM.
Molecule `O=C(O)CCC/C=C\C[C@@H]1[C@@H](/C=C/[C@@H](O)COc2ccc(I)cc2)[C@H]2CC[C@@H]1O2` gave an IC50 on Thromboxane A2 receptor [2] of 50 nM.
